According to patent US10117430B2, “Malononitrile compounds for controlling animal pests” (BASF SE, priority 2012, dated 2018):

Assays:
[1] = test system: Silverleaf Whitefly (Bemisia argentifolii); experiment: B.5 Silverleaf whitefly test on sprayed cotton plants; format: in vivo; conditions: 72 h, in comparison with untreated controls, 3 days after treatment
Summary of the method: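 Cotyledon-stage cotton plants were electrostatically sprayed with compound diluted from a 10,000 ppm cyclohexanone stock into 50% acetone/water with 0.01% nonionic surfactant. After drying, 10–12 adult whiteflies (3–5 days old) were released onto each plant. Mortality was scored after 3 days at 25 °C and 20–40% RH against untreated plants.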

[2] = test system: Green Peach Aphid (Myzus persicae); experiment: B.13 Green peach aphid test on sprayed bell pepper plants; format: in vivo; conditions: 120 h, in comparison with untreated controls, after 5 days
Excerpt: B.13 Green Peach Aphid (Myzus persicae)
The active compounds were formulated in cyclohexanone as a 10,000 ppm solution supplied in tubes. The tubes were inserted into an automated electrostatic sprayer equipped with an atomizing nozzle and they served as stock solutions for which lower dilutions were made in 50% acetone:50% water (v/v). A nonionic surfactant (Kinetic®) was included in the solution at a volume of 0.01% (v/v). Bell pepper plants at the first true-leaf stage were infested prior to treatment by placing heavily infested leaves from the main colony on top of the treatment plants. Aphids were allowed to transfer overnight to accomplish an infestation of 30-50 aphids per plant and the host leaves were removed. The infested plants were then sprayed by an automated electrostatic plant sprayer equipped with an atomizing spray nozzle. The plants were dried in the sprayer fume hood, removed, and then maintained in a growth room under fluorescent lighting in a 24-hr photoperiod at about 25° C. and about 20-40% relative humidity. Aphid mortality on the treated plants, relative to mortality on untreated control plants, was determined after 5 days.

N#CC(C#N)(Cc1ccc(C(F)(F)F)nc1)c1cc(F)cc(F)c1 [II-34]
mortality at 500 ppm [1]: ≥ 75% | mortality at 300 ppm [2]: ≥ 75%
